Data as given in ChEMBL document CHEMBL1140023, “Synthesis of marine alkaloid: 8,9-dihydrocoscinamide B and its analogues as Novel class of antileishmanial agents” (2007).
The source made the active and inactive calls. No cut-off for these calls is given here.

Experiments:
Type in all cases: functional
Leishmania donovani [1] = assay: Antileishmanial activity against Leishmania donovani assessed as inhibition of promastigotes at 10 ug/ml
Leishmania donovani [2] = assay: Antileishmanial activity against Leishmania donovani assessed as inhibition of amastigotes at 10 ug/ml
Leishmania donovani [3] = assay: Antileishmanial activity against Leishmania donovani assessed as inhibition of promastigotes at 0.5 ug/ml
Leishmania donovani [4] = assay: Antileishmanial activity against Leishmania donovani assessed as inhibition of amastigotes at 50 ug/ml

Row | SMILES | inhibition at 10 µg/mL (Leishmania donovani [1]) [%] | also measured
1 | O=C(NCCc1cn(S(=O)(=O)c2ccccc2)c2ccccc12)C(=O)c1cn(S(=O)(=O)c2ccccc2)c2ccccc12 | 49 | –
2 | COc1ccc(CCNC(=O)C(=O)c2c[nH]c3ccccc23)cc1 | 68.5 | –
3 | O=C(NCCCn1ccnc1)C(=O)c1c[nH]c2ccccc12 | 55.5 | –
4 | O=C(NCCc1c[nH]c2ccccc12)C(=O)c1c[nH]c2ccccc12 | 100 | inhibition at 10 µg/mL (Leishmania donovani [2]): 97.7%
5 | Cn1cc(CCNC(=O)C(=O)c2cn(C)c3ccccc23)c2ccccc21 | 99 | inhibition at 10 µg/mL (Leishmania donovani [2]): 97.8%
6 | O=C(Nc1nc2ccccc2s1)C(=O)c1c[nH]c2ccccc12 | 18 | –
7 | N=C(N)NC(=O)C(=O)c1c[nH]c2ccccc12 | 55 | –
8 | O=C(Nc1ccc2[nH]ccc2c1)C(=O)c1c[nH]c2ccccc12 | 93.7 | Activity (Leishmania donovani [2]): Active
9 | O=C(C(=O)N1CCOCC1)c1c[nH]c2ccccc12 | 83.2 | inhibition at 10 µg/mL (Leishmania donovani [2]): 78.1%
10 | CN1CCN(C(=O)C(=O)c2c[nH]c3ccccc23)CC1 | 35.9 | –
11 | COc1ccc(CCNC(=O)C(=O)c2c[nH]c3ccccc23)cc1OC | 78.2 | –
12 | O=C(NCCc1c[nH]c2ccccc12)C(=O)c1c[nH]c2cc(Br)ccc12 | 99.2 | inhibition at 10 µg/mL (Leishmania donovani [2]): 75.1%
13 | O=C(NCCCN1CCOCC1)C(=O)c1c[nH]c2ccccc12 | 73 | –
14 | N=C(N)c1ccc(OCCCCCOc2ccc(C(=N)N)cc2)cc1 [PENTAMIDINE] | 30 | inhibition at 0.5 µg/mL (Leishmania donovani [3]): 85%; inhibition at 50 µg/mL (Leishmania donovani [4]): 90%
15 | O=C(NCc1ccccc1)C(=O)c1c[nH]c2ccccc12 | 53.9 | –
16 | O=C(NCCc1c[nH]c2ccccc12)C(=O)c1c[nH]c2c(Cl)cccc12 | 99.1 | inhibition at 10 µg/mL (Leishmania donovani [2]): 59.1%
17 | O=C(NCc1ccco1)C(=O)c1c[nH]c2ccccc12 | 99.2 | Activity (Leishmania donovani [2]): inactive
